Test results taken from patent US8404679B2, “Pyrrolidine derivatives as NK2 receptor antagonists” (Hoffmann-La Roche Inc., priority 2008, dated 2013).

Experiments:
[1] = tested on: mouse, gerbils and marmosets; conditions: cited from earlier work
rodents = conditions: elevated plus maze and light/dark test in rodents; cited from earlier work
human NK2 receptor = target: T1, human NK2 receptor (Homo sapiens, UniProt P21452); experiment: [3H]SR48968 competition binding assay; conditions: [3H]SR48968 displacement, membranes of CHO cells stably expressing recombinant human NK2 receptor; Ki from IC50 by Cheng-Prussoff
T1 construct: purchased Perkin Elmer biosignal Inc. 6110510
T1 sequence (P21452 1-398): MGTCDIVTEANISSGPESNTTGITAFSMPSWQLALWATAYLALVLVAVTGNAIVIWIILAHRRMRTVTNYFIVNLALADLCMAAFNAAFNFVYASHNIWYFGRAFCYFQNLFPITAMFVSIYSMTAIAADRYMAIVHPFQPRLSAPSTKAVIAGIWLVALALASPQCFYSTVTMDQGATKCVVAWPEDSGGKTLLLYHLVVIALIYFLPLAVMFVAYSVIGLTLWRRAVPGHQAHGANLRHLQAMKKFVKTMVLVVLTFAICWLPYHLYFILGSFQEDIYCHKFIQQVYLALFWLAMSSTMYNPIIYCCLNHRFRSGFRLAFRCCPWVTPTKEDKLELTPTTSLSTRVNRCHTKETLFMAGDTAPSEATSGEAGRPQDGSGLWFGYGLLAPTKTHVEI
How it was run: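 Membranes from CHO cells stably expressing recombinant human NK2 were incubated 75 min at RT with [3H]SR48968 at its KD and 10 compound concentrations (0.0003–10 μM) in Tris-HCl pH 7.4, MnCl2, chymostatin, BSA. Filter-bound radioactivity was counted; Hill-fitted IC50 converted to Ki via Cheng-Prusoff.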

Ki (human NK2 receptor) [nM] | Structure (SMILES) | efficacy in procedures sensitive to anti-depressants [1] | efficacy in exploration based procedures sensitive to anxiolytics (rodents)
 | CC(=O)NC1(c2ccccc2)CCN(CC[C@H](CN(C)C(=O)c2ccccc2)c2ccc(Cl)c(Cl)c2)CC1 [Saredutant] | Efficacy | effective
2.91 | COc1ccc(C(=O)N(C)[C@@H]2CN(C(=O)c3ccc(OC(F)(F)F)cc3)C[C@H]2c2ccc(Cl)c(Cl)c2)cc1C(F)(F)F (racemic) [Example 53, rac-N-[(3S,4R)-4-(3,4-Dichloro-phenyl)-1-(4-trifluoromethoxy-benzoyl)-pyrrolidin-3-yl]-4-methoxy-N-methyl-3-trifluoromethyl-benzamide] |  | 
0.4 | CN(C(=O)c1ccc(Cl)c(C(F)(F)F)c1)[C@H]1CN(C(=O)C2CCN(CC3CC3)CC2)C[C@@H]1c1ccc(Cl)c(Cl)c1 [Example 168, 4-Chloro-N-[(3R,4S)-1-(1-cyclopropylmethyl-piperidine-4-carbonyl)-4-(3,4-dichloro-phenyl)-pyrrolidin-3-yl]-N-methyl-3-trifluoromethyl-benzamide] |  | 
5.09 | CN(C(=O)c1ccc(OC(F)(F)F)cc1)[C@@H]1CN(C(=O)N2CCN(S(C)(=O)=O)CC2)C[C@H]1c1ccc(Cl)c(Cl)c1 (racemic) [Example 16, rac-N-[(3S,4R)-4-(3,4-Dichloro-phenyl)-1-(4-methanesulfonyl-piperazine-1-carbonyl)-pyrrolidin-3-yl]-N-methyl-4-trifluoromethoxy-benzamide] |  | 
